Like-named read-outs stand apart in the source and are kept apart here.
Key:
human TLR9 = human TLR9 (Homo sapiens (Human), UniProt Q9NR96); test: TLR9 inhibition reporter assay (HEK-Blue cells, SEAP reporter, ODN2006 stimulation);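 also: compounds tested over 0.05 nM to 50 µM, 22 h incubation, inhibition taken as SEAP signal drop from agonist plus DMSO wells toward a known inhibitor control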
human TLR8 = human TLR8 (Homo sapiens (Human), UniProt Q9NR97); test: TLR8 inhibition reporter assay (HEK-Blue cells, SEAP reporter, R848 stimulation);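 also: compounds tested from 0.05 nM to 50 µM, 22 h at 37 °C, SEAP measured with HEK-Blue Detection, inhibition relative to agonist plus DMSO versus a known inhibitor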
human TLR7 = human TLR7 (Homo sapiens (Human), UniProt Q9NYK1); test: TLR7 inhibition reporter assay (HEK-Blue cells, SEAP reporter, gardiquimod stimulation); assay type: cell-based
[1] = read-out: TLR9 IC50, HEK-Blue cells overexpressing human TLR9, ODN2006 5 nM
[2] = read-out: TLR8 IC50, HEK-Blue cells overexpressing human TLR8, R848 15.9 μM
[3] = HEK-Blue cells overexpressing human TLR7, gardiquimod 7.5 μM
[4] = read-out: TLR9 IC50, HEK-Blue cells, ODN2006 5 nM
[5] = read-out: TLR8 IC50, HEK-Blue cells, R848 15.9 μM
[6] = HEK-Blue cells, gardiquimod 7.5 μM

human TLR9, sequence (Q9NR96 26-1032): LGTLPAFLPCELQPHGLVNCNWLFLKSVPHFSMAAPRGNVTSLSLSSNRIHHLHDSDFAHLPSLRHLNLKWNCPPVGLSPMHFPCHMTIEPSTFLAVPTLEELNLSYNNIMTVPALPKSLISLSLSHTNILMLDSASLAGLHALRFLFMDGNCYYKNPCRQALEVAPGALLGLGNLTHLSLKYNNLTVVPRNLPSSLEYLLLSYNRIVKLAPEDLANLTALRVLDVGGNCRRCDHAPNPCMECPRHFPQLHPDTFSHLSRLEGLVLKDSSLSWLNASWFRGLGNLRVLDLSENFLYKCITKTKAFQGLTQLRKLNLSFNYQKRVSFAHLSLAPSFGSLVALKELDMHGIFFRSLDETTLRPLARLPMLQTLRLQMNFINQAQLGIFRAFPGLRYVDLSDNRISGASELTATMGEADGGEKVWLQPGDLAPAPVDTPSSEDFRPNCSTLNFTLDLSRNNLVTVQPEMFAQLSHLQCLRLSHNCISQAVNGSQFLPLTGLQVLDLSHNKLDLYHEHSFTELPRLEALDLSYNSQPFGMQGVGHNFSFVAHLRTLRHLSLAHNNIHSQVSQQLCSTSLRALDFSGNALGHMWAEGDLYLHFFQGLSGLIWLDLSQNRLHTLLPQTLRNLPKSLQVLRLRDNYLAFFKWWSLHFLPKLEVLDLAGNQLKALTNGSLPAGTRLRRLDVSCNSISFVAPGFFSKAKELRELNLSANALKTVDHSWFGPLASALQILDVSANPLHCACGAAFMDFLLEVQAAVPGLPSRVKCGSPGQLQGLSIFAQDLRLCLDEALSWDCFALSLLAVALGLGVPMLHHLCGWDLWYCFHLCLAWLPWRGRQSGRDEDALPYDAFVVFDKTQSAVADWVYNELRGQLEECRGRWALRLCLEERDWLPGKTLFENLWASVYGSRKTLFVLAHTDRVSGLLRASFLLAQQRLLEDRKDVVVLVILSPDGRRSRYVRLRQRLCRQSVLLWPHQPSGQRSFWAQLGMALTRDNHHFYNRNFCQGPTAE
human TLR7, sequence (Q9NYK1 27-1049): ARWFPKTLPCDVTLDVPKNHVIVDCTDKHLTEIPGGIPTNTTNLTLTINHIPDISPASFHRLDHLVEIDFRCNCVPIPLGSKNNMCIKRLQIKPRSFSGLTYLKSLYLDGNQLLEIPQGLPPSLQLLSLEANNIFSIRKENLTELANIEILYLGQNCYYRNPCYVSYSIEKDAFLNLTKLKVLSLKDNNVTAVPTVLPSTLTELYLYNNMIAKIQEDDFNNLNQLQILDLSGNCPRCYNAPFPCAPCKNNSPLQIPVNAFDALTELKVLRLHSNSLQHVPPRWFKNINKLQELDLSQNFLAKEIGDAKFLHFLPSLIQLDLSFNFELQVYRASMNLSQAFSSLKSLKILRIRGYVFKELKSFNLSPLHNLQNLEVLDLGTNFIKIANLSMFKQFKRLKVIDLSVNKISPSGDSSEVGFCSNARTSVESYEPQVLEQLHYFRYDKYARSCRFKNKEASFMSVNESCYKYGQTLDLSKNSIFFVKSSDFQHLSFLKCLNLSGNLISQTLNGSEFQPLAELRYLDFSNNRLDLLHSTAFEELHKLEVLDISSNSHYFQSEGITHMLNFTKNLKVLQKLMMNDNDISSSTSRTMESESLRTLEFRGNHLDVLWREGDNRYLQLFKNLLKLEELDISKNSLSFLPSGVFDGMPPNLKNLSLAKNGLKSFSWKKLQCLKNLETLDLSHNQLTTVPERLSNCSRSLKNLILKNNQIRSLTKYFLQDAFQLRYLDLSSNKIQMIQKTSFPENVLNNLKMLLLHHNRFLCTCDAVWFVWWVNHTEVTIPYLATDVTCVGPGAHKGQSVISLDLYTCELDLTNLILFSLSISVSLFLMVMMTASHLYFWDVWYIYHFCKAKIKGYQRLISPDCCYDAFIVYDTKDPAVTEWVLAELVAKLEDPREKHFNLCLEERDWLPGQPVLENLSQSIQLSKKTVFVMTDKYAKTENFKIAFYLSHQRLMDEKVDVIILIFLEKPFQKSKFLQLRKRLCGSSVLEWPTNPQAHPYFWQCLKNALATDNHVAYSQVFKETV
human TLR8, sequence (Q9NR97 27-1041): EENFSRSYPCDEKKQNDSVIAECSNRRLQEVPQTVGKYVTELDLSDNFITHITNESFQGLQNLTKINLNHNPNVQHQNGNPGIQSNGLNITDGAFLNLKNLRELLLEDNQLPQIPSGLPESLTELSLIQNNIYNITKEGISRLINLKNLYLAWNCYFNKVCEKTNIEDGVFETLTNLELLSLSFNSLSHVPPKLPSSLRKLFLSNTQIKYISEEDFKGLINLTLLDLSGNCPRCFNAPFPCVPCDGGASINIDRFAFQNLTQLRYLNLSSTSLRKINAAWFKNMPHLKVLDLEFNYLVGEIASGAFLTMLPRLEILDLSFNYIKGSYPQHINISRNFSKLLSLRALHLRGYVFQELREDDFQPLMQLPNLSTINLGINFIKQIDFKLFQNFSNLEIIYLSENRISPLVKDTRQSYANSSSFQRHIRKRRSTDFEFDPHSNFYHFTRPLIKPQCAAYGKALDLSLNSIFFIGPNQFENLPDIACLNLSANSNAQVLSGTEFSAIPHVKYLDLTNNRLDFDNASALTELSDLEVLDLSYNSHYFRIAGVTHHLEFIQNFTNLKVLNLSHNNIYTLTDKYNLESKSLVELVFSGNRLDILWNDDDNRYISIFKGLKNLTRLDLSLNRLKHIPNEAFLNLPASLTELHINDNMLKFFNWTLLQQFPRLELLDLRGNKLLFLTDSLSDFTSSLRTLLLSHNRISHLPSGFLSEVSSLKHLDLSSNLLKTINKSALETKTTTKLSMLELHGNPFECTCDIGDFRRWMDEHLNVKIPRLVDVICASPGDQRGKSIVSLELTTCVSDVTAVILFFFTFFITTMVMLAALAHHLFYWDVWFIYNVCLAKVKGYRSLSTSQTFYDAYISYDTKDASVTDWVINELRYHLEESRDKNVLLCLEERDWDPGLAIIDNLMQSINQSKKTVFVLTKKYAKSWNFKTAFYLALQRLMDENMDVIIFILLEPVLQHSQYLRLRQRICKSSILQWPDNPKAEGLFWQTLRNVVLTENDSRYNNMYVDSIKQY

SMILES: Cc1cc(-c2[nH]c3ccc(C4CCN(CCC#N)CC4)cc3c2C(C)C)c(C)cn1 [Example 665, 3-(4-(2-(2,5-dimethylpyridin-4-yl)-3-isopropyl-1H-indol-5-yl)piperidin-1-yl)propanenitrile]
- IC50 (human TLR9; [1]): 6210 nM
- IC50 (human TLR8; [2]): 2.2 nM
- IC50 (human TLR7; [3]): 13.6 nM

SMILES: Cc1cc(-c2[nH]c3ccc(C4CCN(C(=O)C5CCN(Cc6ccccc6)CC5)CC4)cc3c2C(C)C)ccn1 [Example 567, (1-benzylpiperidin-4-yl)(4-(3-isopropyl-2-(2-methylpyridin-4-yl)-1H-indol-5-yl)piperidin-1-yl)methanone]
- IC50 (human TLR9; [1]): 876 nM
- IC50 (human TLR8; [2]): 22.9 nM
- IC50 (human TLR7; [3]): 26.7 nM

SMILES: Cc1cc(-c2[nH]c3ccc(C4CCNCC4)cc3c2C(C)C)c(N)cn1 [Example 10, 4-(3-isopropyl-5-(piperidin-4-yl)-1H-indol-2-yl)-6-methylpyridin-3-amine]
- IC50 (human TLR9; [1]): 354 nM
- IC50 (human TLR8; [2]): 6.3 nM
- IC50 (human TLR7; [3]): 5.1 nM

SMILES: Cc1cc(-c2[nH]c3ccc(C4CCN(C(=O)CNC5CCC5)CC4)cc3c2C(C)C)cc(C)n1 [Example 334, 2-(cyclobutylamino)-1-(4-(2-(2,6-dimethylpyridin-4-yl)-3-isopropyl-1H-indol-5-yl)piperidin-1-yl)ethan-1-one]
- IC50 (human TLR9; [1]): 474 nM
- IC50 (human TLR8; [2]): 7.6 nM
- IC50 (human TLR7; [3]): 2.3 nM

SMILES: Cc1cc(-c2[nH]c3cc(F)c(C4CCN(CC(=O)N(C)C)CC4)cc3c2C(C)C)cc(C)n1 [Example 837, 2-(4-(2-(2,6-dimethylpyridin-4-yl)-6-fluoro-3-isopropyl-1H-indol-5-yl)piperidin-1-yl)-N,N-dimethylacetamide]
- IC50 (human TLR9; [4]): 194 nM
- IC50 (human TLR8; [5]): 11.4 nM
- IC50 (human TLR7; [6]): 1.9 nM

SMILES: Cc1c(-c2ccncc2)[nH]c2ccc(C3CCN(C4CCN(C(C)C)CC4)CC3)cc12 [Example 843, 5-(1′-isopropyl-[1,4′-bipiperidin]-4-yl)-3-methyl-2-(pyridin-4-yl)-1H-indole]
- IC50 (human TLR9; [4]): 38 nM
- IC50 (human TLR8; [5]): 28.4 nM
- IC50 (human TLR7; [6]): 292 nM

SMILES: Cc1cc(-c2[nH]c3ccc(C4CCN(Cc5ccnn5C)CC4)cc3c2C(C)C)cc(C)n1 [Example 461, 2-(2,6-dimethylpyridin-4-yl)-3-isopropyl-5-(1-((1-methyl-1H-pyrazol-5-yl)methyl)piperidin-4-yl)-1H-indole]
- IC50 (human TLR9; [1]): 621 nM
- IC50 (human TLR8; [2]): 7.5 nM
- IC50 (human TLR7; [3]): 9.3 nM

SMILES: Cc1cc(-c2[nH]c3ccc(C4CCN(C5CCCOC5)CC4)cc3c2C(C)C)c(C)cn1 (stereo not drawn) [Example 726, 2-(2,5-dimethylpyridin-4-yl)-3-isopropyl-5-(1-(tetrahydro-2H-pyran-3-yl)piperidin-4-yl)-1H-indole]
- IC50 (human TLR9; [1]): 1450 nM
- IC50 (human TLR8; [2]): 1.1 nM
- IC50 (human TLR7; [3]): 14.2 nM

SMILES: Cc1cc(-c2[nH]c3ccc(C4CCN(C(=O)CN(C)C5CCCCC5)CC4)cc3c2C(C)C)cc(C)n1 [Example 384, 2-(cyclohexyl (methyl)amino)-1-(4-(2-(2,6-dimethylpyridin-4-yl)-3-isopropyl-1H-indol-5-yl)piperidin-1-yl)ethan-1-one]
- IC50 (human TLR9; [1]): 630 nM
- IC50 (human TLR8; [2]): 57 nM
- IC50 (human TLR7; [3]): 14.4 nM

SMILES: Cc1cc(-c2[nH]c3ccc(C4CCN(C5CCNCC5F)CC4)cc3c2C(C)C)ccn1 (stereo not drawn) [Example 705, 5-(3′-fluoro-[1,4′-bipiperidin]-4-yl)-3-isopropyl-2-(2-methylpyridin-4-yl)-1H-indole]
- IC50 (human TLR9; [1]): 708 nM
- IC50 (human TLR8; [2]): 6.2 nM
- IC50 (human TLR7; [3]): 21.9 nM

SMILES: Cc1cc(-c2[nH]c3ccc(C4CCN(C(=O)Cn5ccc(C6CC6)n5)CC4)cc3c2C(C)C)cc(C)n1 [Example 162, 2-(3-cyclopropyl-1H-pyrazol-1-yl)-1-(4-(2-(2,6-dimethylpyridin-4-yl)-3-isopropyl-1H-indol-5-yl)piperidin-1-yl)ethan-1-one]
- IC50 (human TLR9; [1]): 16200 nM
- IC50 (human TLR8; [2]): 129 nM
- IC50 (human TLR7; [3]): 18.5 nM

SMILES: Cc1cc(-c2[nH]c3ccc(C4CCN(CC(=O)N5CC(F)(F)C5)CC4)cc3c2C(C)C)cc(C)n1 [Example 215, 1-(3,3-difluoroazetidin-1-yl)-2-(4-(2-(2,6-dimethylpyridin-4-yl)-3-isopropyl-1H-indol-5-yl)piperidin-1-yl)ethan-1-one]
- IC50 (human TLR9; [1]): 680 nM
- IC50 (human TLR8; [2]): 6 nM
- IC50 (human TLR7; [3]): 4.9 nM

SMILES: Cc1cc(-c2[nH]c3ccc(C4CCN(C(=O)CN(C)CC(F)F)CC4)cc3c2C(C)C)cc(C)n1 [Example 422, 2-((2,2-difluoroethyl)(methyl)amino)-1-(4-(2-(2,6-dimethylpyridin-4-yl)-3-isopropyl-1H-indol-5-yl)piperidin-1-yl) ethan-1-one]
- IC50 (human TLR9; [1]): 41300 nM
- IC50 (human TLR8; [2]): 73.4 nM
- IC50 (human TLR7; [3]): 5.5 nM

SMILES: Cc1cc(-c2[nH]c3ccc(C4CCN(CCCN(C)C)CC4)cc3c2C(C)C)ccn1 [Example 669, 3-(4-(3-isopropyl-2-(2-methylpyridin-4-yl)-1H-indol-5-yl)piperidin-1-yl)-N,N-dimethylpropan-1-amine]
- IC50 (human TLR9; [1]): 221 nM
- IC50 (human TLR8; [2]): 1.9 nM
- IC50 (human TLR7; [3]): 2.6 nM

SMILES: CCc1c(-c2ccnc(OC)c2)[nH]c2ccc(C3CCN(C4CCN(C)CC4)CC3)cc12 [Example 790, 3-ethyl-2-(2-methoxypyridin-4-yl)-5-(1′-methyl-[1,4′-bipiperidin]-4-yl)-1H-indole]
- IC50 (human TLR9; [1]): 1780 nM
- IC50 (human TLR8; [2]): 1410 nM
- IC50 (human TLR7; [3]): 1700 nM

SMILES: Cc1cc(-c2[nH]c3ccc(C4CCN(C(=O)CN(C)C5COC5)CC4)cc3c2C(C)C)cc(C)n1 [Example 416, 1-(4-(2-(2,6-dimethylpyridin-4-yl)-3-isopropyl-1H-indol-5-yl)piperidin-1-yl)-2-(methyl(oxetan-3-yl)amino)ethan-1-one]
- IC50 (human TLR9; [1]): 4760 nM
- IC50 (human TLR8; [2]): 49.7 nM
- IC50 (human TLR7; [3]): 4.5 nM

SMILES: CCc1c(-c2ccnc(OC)c2)[nH]c2ccc(C3CCN(C4C[C@H]5CCC[C@@H](C4)N5C)CC3)cc12 (stereo partly drawn) [Example 798, 3-ethyl-2-(2-methoxypyridin-4-yl)-5-(1-((1R,3r,5S)-9-methyl-9-azabicyclo[3.3.1]nonan-3-yl)piperidin-4-yl)-1H-indole]
- IC50 (human TLR9; [1]): 67 nM
- IC50 (human TLR8; [2]): 165 nM
- IC50 (human TLR7; [3]): 624 nM

SMILES: Cc1c(-c2ccncc2)[nH]c2ccc(C3CCN(C4CCN(CC(C)C)CC4)CC3)cc12 [Example 782, 5-(1′-isobutyl-[1,4′-bipiperidin]-4-yl)-3-methyl-2-(pyridin-4-yl)-1H-indole]
- IC50 (human TLR9; [1]): 124 nM
- IC50 (human TLR8; [2]): 383 nM
- IC50 (human TLR7; [3]): 1310 nM

SMILES: Cc1nccc(-c2[nH]c3ccc(C4CCN(C(=O)CN(C)C)CC4)cc3c2C(C)C)c1F [Example 587, 2-(dimethylamino)-1-(4-(2-(3-fluoro-2-methylpyridin-4-yl)-3-isopropyl-1H-indol-5-yl)piperidin-1-yl)ethan-1-one]
- IC50 (human TLR9; [1]): 2910 nM
- IC50 (human TLR8; [2]): 5.2 nM
- IC50 (human TLR7; [3]): 2.7 nM

SMILES: Cc1cc(-c2[nH]c3ccc(C4CCN(CC(=O)NC(C)C)CC4)cc3c2C(C)C)cc(C)n1 [Example 218, 2-(4-(2-(2,6-dimethylpyridin-4-yl)-3-isopropyl-1H-indol-5-yl)piperidin-1-yl)-N-isopropylacetamide]
- IC50 (human TLR9; [1]): 949 nM
- IC50 (human TLR8; [2]): 10.5 nM
- IC50 (human TLR7; [3]): 4.9 nM

SMILES: CC(C)c1c(-c2cc(C3CC3)ncc2F)[nH]c2ccc(C3CCN(C(=O)C4CC(=O)N(C)C4)CC3)cc12 (stereo not drawn) [Example 517, 4-(4-(2-(2-cyclopropyl-5-fluoropyridin-4-yl)-3-isopropyl-1H-indol-5-yl)piperidine-1-carbonyl)-1-methylpyrrolidin-2-one]
- IC50 (human TLR9; [1]): > 50000 nM
- IC50 (human TLR8; [2]): 1150 nM
- IC50 (human TLR7; [3]): 144 nM

SMILES: CCc1c(-c2ccnc(N)c2)[nH]c2ccc([C@@H]3CCNC[C@H]3F)cc12 [491-B]
- IC50 (human TLR9; [1]): 324 nM
- IC50 (human TLR8; [2]): 34.9 nM
- IC50 (human TLR7; [3]): 526 nM

SMILES: Cc1cc(-c2[nH]c3ccc(C4CCN(C5CC(C)OC6(CC6)C5)CC4)cc3c2C(C)C)cc(C)n1 (stereo not drawn) [Example 456, 2-(2,6-dimethylpyridin-4-yl)-3-isopropyl-5-(1-(5-methyl-4-oxaspiro[2.5]octan-7-yl)piperidin-4-yl)-1H-indole]
- IC50 (human TLR9; [1]): 340 nM
- IC50 (human TLR8; [2]): 5.8 nM
- IC50 (human TLR7; [3]): 4.2 nM

SMILES: Cc1cc(-c2[nH]c3ccc(C4CCNCC4)cc3c2C(C)C)c(F)c(C)n1 [Example 51, 2-(3-fluoro-2,6-dimethylpyridin-4-yl)-3-isopropyl-5-(piperidin-4-yl)-1H-indole]
- IC50 (human TLR9; [1]): 775 nM
- IC50 (human TLR8; [2]): 2.5 nM
- IC50 (human TLR7; [3]): 1 nM

SMILES: Cc1cc(-c2[nH]c3ccc(C4CCN(C(=O)C5CCOCC5)CC4)cc3c2C(C)C)cc(C)n1 [Example 198, (4-(2-(2,6-dimethylpyridin-4-yl)-3-isopropyl-1H-indol-5-yl)piperidin-1-yl)(tetrahydro-2H-pyran-4-yl)methanone]
- IC50 (human TLR9; [1]): 30800 nM
- IC50 (human TLR8; [2]): 104 nM
- IC50 (human TLR7; [3]): 8.9 nM

SMILES: Cc1cc(-c2[nH]c3ccc(C4CCN(Cc5ncn(C)n5)CC4)cc3c2C(C)C)c(C)cn1 [Example 723, 2-(2,5-dimethylpyridin-4-yl)-3-isopropyl-5-(1-((1-methyl-1H-1,2,4-triazol-3-yl)methyl)piperidin-4-yl)-1H-indole]
- IC50 (human TLR9; [1]): 14500 nM
- IC50 (human TLR8; [2]): 8.4 nM
- IC50 (human TLR7; [3]): 78.4 nM

SMILES: Cc1cc(-c2[nH]c3ccc(C4CCN(Cc5ccn[nH]5)CC4)cc3c2C(C)C)c(F)cn1 [Example 682, 5-(1-((1H-pyrazol-5-yl)methyl)piperidin-4-yl)-2-(5-fluoro-2-methylpyridin-4-yl)-3-isopropyl-1H-indole]
- IC50 (human TLR9; [1]): 2720 nM
- IC50 (human TLR8; [2]): 1.7 nM
- IC50 (human TLR7; [3]): 7.5 nM

SMILES: Cc1cc(-c2[nH]c3ccc(C4CCN(C(=O)CN(C)CCO)CC4)cc3c2C(C)C)c(F)cn1 [Example 680, 1-(4-(2-(5-fluoro-2-methylpyridin-4-yl)-3-isopropyl-1H-indol-5-yl)piperidin-1-yl)-2-((2-hydroxyethyl)(methyl)amino)ethan-1-one]
- IC50 (human TLR9; [1]): 2970 nM
- IC50 (human TLR8; [2]): 4 nM
- IC50 (human TLR7; [3]): 2 nM

Source: US10660877B2 (BRISTOL-MYERS SQUIBB COMPANY, priority 2016, dated 2020)
